The subject of the assay is human primary adipocytes. Briefly: In vitro 2-deoxy-D-glucose-6-phosphate (DG6P) uptake in human primary adipocytes. The class given is cell-based. How it is done:
Human white visceral preadipocytes (Catalog #: C-12732; PromoCell) were purchased. The preadipocytes were seeded according to manufacturer's protocol and cultured in the Preadipocyte growth medium (Catalog #: C-27410; PromoCell) to confluence. Once confluence was reached, adipogenic differentiation was triggered through medium change to get mature human adipocytes. For the culture without insulin, Adipocyte Basal Medium (Catalog #: C-2431; PromoCell) without insulin was complemented with 5 g/L of […], 8 μg/mL d-Biotin, 400 ng/mL Dexamethasone (following manufacturer's procedure). Native peptides and their stapled counterparts as well as the scrambled peptides (corresponding to the same set of amino acids but rearranged randomly) were purchased from Eurogentec. Each peptide was diluted in saline and used at a dose of 2.5 ng per 10 cm square of cell culture surface area for in vitro studies or 2.5 ng of each peptide (A and B) was injected per mouse.
Mature adipocytes were cultured in 96 well plate. The adipocytes received the different peptides at the indicated concentration above. 24 hours later, the glucose absorption capacity if the treated cells were assessed using the Glucose Uptake Colorimetric Assay kit from Bio Vision (Catalog #: K676-100).
In vivo assessment of the effect of stapled peptides A and B injection in the adipose tissue of diet-induced diabetic WT mice. Mice were fed with a defined high fat/high glucose diet until they became intolerant to glucose (FIG. 5A, Prior Injection). Once the mice were glucose intolerant, these mice received an injection with a combination of the stapled peptides A and B directly in the subcutaneous fat and GTT was again performed a week later as depicted in FIG. 5B. […] FIG. 5C depicts pictures of the adipose tissue which received a combination of the stapled peptides A and B labelled with FAM (green dots indicated with the white arrows). […] A variety of modified stapled peptides were designed to test the effect of modifying the peptide sequence on insulin-independent glucose uptake into adipocytes. Peptides were obtained from CPC Scientific. Additional in vitro 2-deoxy-D-glucose-6-phosphate (DG6P) uptake results in human primary adipocytes for individual peptides of the present technology are provided in Tables 1-3.

Where [1] appears, read: Table 2 dose response, 0.001 μM.

Positions of bridges follow the written chain, without caps; N, C: chain ends. Non-standard residues stand in square brackets, D forms with d. R8 = C=CCCCCCC[C@@](C)(N)C(=O)O; S5 = C=CCCC[C@](C)(N)C(=O)O

In the case of “H-VECTM-R8-EKRVLA-S5-LDKPPFLTQLHS-NH2 [AT003]”, for the setting “Table 1, peptides at 50 μM”, the “2-DG6P” value was found to be 46.2 pmol and the “2-DG6P compared to -Insulin (%)” value is 153.3%.

As for “H-VECTM-R8-EKRVLA-S5-LDKP-OH (H-VECTM[R8]EKRVLA[S5]LDKP-OH; staple 6-13; SMILES CSCC[C@H](NC(=O)[C@@H](NC(=O)[C@H](CS)NC(=O)[C@H](CCC(=O)O)NC(=O)[C@@H](N)C(C)C)[C@@H](C)O)C(=O)N[C@]1(C)CCCCCCC=CCCC[C@@](C)(C(=O)N[C@@H](CC(C)C)C(=O)N[C@@H](CC(=O)O)C(=O)N[C@@H](CCCCN)C(=O)N2CCC[C@H]2C(=O)O)NC(=O)[C@H](C)NC(=O)[C@H](CC(C)C)NC(=O)[C@H](C(C)C)NC(=O)[C@H](CCCNC(=N)N)NC(=O)[C@H](CCCCN)NC(=O)[C@H](CCC(=O)O)NC1=O) [AT015]”, the “2-DG6P” value (Table 1, peptides at 50 μM) came to 35.7 pmol; the “2-DG6P” value (Table 3 dose response, 1 μM) was found to be 16.6 pmol; the “2-DG6P” value (Table 3 dose response, 10 μM) turned out to be 28.9 pmol; the “2-DG6P” value (Table 3 dose response, 100 μM) is reported as 39.2 pmol. Moreover, the “2-DG6P compared to -Insulin (%)” value by setting is: (Table 1, peptides at 50 μM) 118.6%; (Table 3 dose response, 1 μM) 121.0%; (Table 3 dose response, 10 μM) 210.6%; (Table 3 dose response, 100 μM) 284.9%.

“H-VECTM-S5-EKR-S5-LALLDKPPFLTQLHS-OH [AT008]”: where the note is “Table 1, peptides at 50 μM”, the “2-DG6P” value came out at 53.3 pmol and the “2-DG6P compared to -Insulin (%)” value was 177.0%.

As for “H-VECTM-R8-EKRVLA-S5-LDKPPFLTQLHS-OH [AT021]”, under “Table 1, peptides at 50 μM”, the “2-DG6P” value was 37.5 pmol and the “2-DG6P compared to -Insulin (%)” value worked out at 124.6%.

With “+Insulin: insulin-treated adipocytes, positive control of the DG6P uptake assay [reference compound]”, the “2-DG6P” value runs as follows: (Table 1, +Insulin control) 94.2 pmol; (Table 2, +Ins control) 79.3 pmol; (Table 3, +Insulin control) 87.9 pmol. The “2-DG6P compared to -Insulin (%)” value (Table 1, +Insulin control) was 312.6%; the “2-DG6P compared to -Insulin (%)” value (Table 2, +Ins control) was 363.3%; the “2-DG6P compared to -Insulin (%)” value (Table 3, +Insulin control) is recorded as 639.6%.

“H-VECTM-R8-EKRVLA-S5-LDKPPFLTQLHS-OH [AT001]”: the “2-DG6P” value worked out at 44.2 pmol (Table 1, peptides at 50 μM); 19.9 pmol under setting [1]; 21.3 pmol (Table 2 dose response, 0.01 μM); 22.3 pmol (Table 2 dose response, 0.1 μM); 23.9 pmol (Table 2 dose response, 1 μM); 31.7 pmol (Table 2 dose response, 10 μM). The “2-DG6P” value (Table 2 dose response, 100 μM) is 47.2 pmol. Further, the “2-DG6P compared to -Insulin (%)” value is on record as 146.8% (Table 1, peptides at 50 μM); 91.2% under setting [1]; 97.5% (Table 2 dose response, 0.01 μM); 102.0% (Table 2 dose response, 0.1 μM); 109.6% (Table 2 dose response, 1 μM); 145.2% (Table 2 dose response, 10 μM). For the same substance, for the setting “Table 2 dose response, 100 μM”, the “2-DG6P compared to -Insulin (%)” value is on record as 216.1%.

On to “H-VE(AAB)TM-R8-EKRVLA-S5-LDKPPFLTQLHS-OH [AT017]”, for which, under “Table 1, peptides at 50 μM”, the “2-DG6P” value was 55.4 pmol and the “2-DG6P compared to -Insulin (%)” value is reported as 184.0%.

Regarding “H-VECTM-R8-EKRVLA-S5-LDKPPFLTQLHS-OH [AT007]”, the “2-DG6P” value runs as follows: (Table 1, peptides at 50 μM) 57.7 pmol; (Table 2 dose response, 0.1 μM) 23.2 pmol; (Table 2 dose response, 1 μM) 24.0 pmol; (Table 2 dose response, 10 μM) 36.0 pmol; (Table 2 dose response, 100 μM) 55.5 pmol. Besides, the “2-DG6P compared to -Insulin (%)” value by setting is: (Table 1, peptides at 50 μM) 191.5%; (Table 2 dose response, 0.1 μM) 106.5%; (Table 2 dose response, 1 μM) 110.1%; (Table 2 dose response, 10 μM) 165.0%; (Table 2 dose response, 100 μM) 254.3%.

With “H-VECTM-R8-EKRVLA-S5-LD-OH (H-VECTM[R8]EKRVLA[S5]LD-OH; staple 6-13; SMILES CSCC[C@H](NC(=O)[C@@H](NC(=O)[C@H](CS)NC(=O)[C@H](CCC(=O)O)NC(=O)[C@@H](N)C(C)C)[C@@H](C)O)C(=O)N[C@]1(C)CCCCCCC=CCCC[C@@](C)(C(=O)N[C@@H](CC(C)C)C(=O)N[C@@H](CC(=O)O)C(=O)O)NC(=O)[C@H](C)NC(=O)[C@H](CC(C)C)NC(=O)[C@H](C(C)C)NC(=O)[C@H](CCCNC(=N)N)NC(=O)[C@H](CCCCN)NC(=O)[C@H](CCC(=O)O)NC1=O) [AT016]”, the “2-DG6P” value is given as 51.5 pmol (Table 1, peptides at 50 μM); 23.7 pmol (Table 3 dose response, 1 μM); 38.6 pmol (Table 3 dose response, 10 μM); 51.4 pmol (Table 3 dose response, 100 μM). Moreover, the “2-DG6P compared to -Insulin (%)” value is, setting by setting: (Table 1, peptides at 50 μM) 170.9%; (Table 3 dose response, 1 μM) 172.4%; (Table 3 dose response, 10 μM) 280.6%; (Table 3 dose response, 100 μM) 373.7%.

Take “H-LPHET-R8-RLSQKV-S5-TKLDCLMFVEPA-OH [AT006] (H-LPHET[R8]RLSQKV[S5]TKLDCLMFVEPA-OH; staple 6-13; SMILES CSCC[C@H](NC(=O)[C@H](CC(C)C)NC(=O)[C@H](CS)NC(=O)[C@H](CC(=O)O)NC(=O)[C@H](CC(C)C)NC(=O)[C@H](CCCCN)NC(=O)[C@@H](NC(=O)[C@]1(C)CCCC=CCCCCCC[C@@](C)(NC(=O)[C@@H](NC(=O)[C@H](CCC(=O)O)NC(=O)[C@H](Cc2c[nH]cn2)NC(=O)[C@@H]2CCCN2C(=O)[C@@H](N)CC(C)C)[C@@H](C)O)C(=O)N[C@@H](CCCNC(=N)N)C(=O)N[C@@H](CC(C)C)C(=O)N[C@@H](CO)C(=O)N[C@@H](CCC(N)=O)C(=O)N[C@@H](CCCCN)C(=O)N[C@@H](C(C)C)C(=O)N1)[C@@H](C)O)C(=O)N[C@@H](Cc1ccccc1)C(=O)N[C@H](C(=O)N[C@@H](CCC(=O)O)C(=O)N1CCC[C@H]1C(=O)N[C@@H](C)C(=O)O)C(C)C) [reference compound]”: where the note is “Table 1, peptides at 50 μM”, the “2-DG6P” value is recorded as 30.7 pmol and the “2-DG6P compared to -Insulin (%)” value worked out at 102.0%.

Regarding “H-LPHET-R8-RLSQKV-S5-TKLDCLMFVEPA-OH [AT005] (H-LPHET[R8]RLSQKV[S5]TKLDCLMFVEPA-OH; staple 6-13; SMILES CSCC[C@H](NC(=O)[C@H](CC(C)C)NC(=O)[C@H](CS)NC(=O)[C@H](CC(=O)O)NC(=O)[C@H](CC(C)C)NC(=O)[C@H](CCCCN)NC(=O)[C@@H](NC(=O)[C@]1(C)CCCC=CCCCCCC[C@@](C)(NC(=O)[C@@H](NC(=O)[C@H](CCC(=O)O)NC(=O)[C@H](Cc2c[nH]cn2)NC(=O)[C@@H]2CCCN2C(=O)[C@@H](N)CC(C)C)[C@@H](C)O)C(=O)N[C@@H](CCCNC(=N)N)C(=O)N[C@@H](CC(C)C)C(=O)N[C@@H](CO)C(=O)N[C@@H](CCC(N)=O)C(=O)N[C@@H](CCCCN)C(=O)N[C@@H](C(C)C)C(=O)N1)[C@@H](C)O)C(=O)N[C@@H](Cc1ccccc1)C(=O)N[C@H](C(=O)N[C@@H](CCC(=O)O)C(=O)N1CCC[C@H]1C(=O)N[C@@H](C)C(=O)O)C(C)C) [reference compound]”, under “Table 1, peptides at 50 μM”, the “2-DG6P” value is given as 27.7 pmol and the “2-DG6P compared to -Insulin (%)” value is on record as 92.0%.

Consider “H-LPHET-R8-RLSQKV-S5-TKLDCLMFVEPA-OH [AT004] (H-LPHET[R8]RLSQKV[S5]TKLDCLMFVEPA-OH; staple 6-13; SMILES CSCC[C@H](NC(=O)[C@H](CC(C)C)NC(=O)[C@H](CS)NC(=O)[C@H](CC(=O)O)NC(=O)[C@H](CC(C)C)NC(=O)[C@H](CCCCN)NC(=O)[C@@H](NC(=O)[C@]1(C)CCCC=CCCCCCC[C@@](C)(NC(=O)[C@@H](NC(=O)[C@H](CCC(=O)O)NC(=O)[C@H](Cc2c[nH]cn2)NC(=O)[C@@H]2CCCN2C(=O)[C@@H](N)CC(C)C)[C@@H](C)O)C(=O)N[C@@H](CCCNC(=N)N)C(=O)N[C@@H](CC(C)C)C(=O)N[C@@H](CO)C(=O)N[C@@H](CCC(N)=O)C(=O)N[C@@H](CCCCN)C(=O)N[C@@H](C(C)C)C(=O)N1)[C@@H](C)O)C(=O)N[C@@H](Cc1ccccc1)C(=O)N[C@H](C(=O)N[C@@H](CCC(=O)O)C(=O)N1CCC[C@H]1C(=O)N[C@@H](C)C(=O)O)C(C)C) [reference compound]”, for which, under “Table 1, peptides at 50 μM”, the “2-DG6P” value came to 29.5 pmol and the “2-DG6P compared to -Insulin (%)” value was found to be 98.0%.

On to “H-VECTM-R8-EKRVLA-S5-LDKPPF-OH (H-VECTM[R8]EKRVLA[S5]LDKPPF-OH; staple 6-13; SMILES CSCC[C@H](NC(=O)[C@@H](NC(=O)[C@H](CS)NC(=O)[C@H](CCC(=O)O)NC(=O)[C@@H](N)C(C)C)[C@@H](C)O)C(=O)N[C@]1(C)CCCCCCC=CCCC[C@@](C)(C(=O)N[C@@H](CC(C)C)C(=O)N[C@@H](CC(=O)O)C(=O)N[C@@H](CCCCN)C(=O)N2CCC[C@H]2C(=O)N2CCC[C@H]2C(=O)N[C@@H](Cc2ccccc2)C(=O)O)NC(=O)[C@H](C)NC(=O)[C@H](CC(C)C)NC(=O)[C@H](C(C)C)NC(=O)[C@H](CCCNC(=N)N)NC(=O)[C@H](CCCCN)NC(=O)[C@H](CCC(=O)O)NC1=O) [AT014]”, for which, under “Table 1, peptides at 50 μM”, the “2-DG6P” value is reported as 58.8 pmol and the “2-DG6P compared to -Insulin (%)” value stood at 195.1%.

In the case of “H-VECT(AAH)-R8-EKRVLA-S5-LDKPPFLTQLHS-OH [AT018]”, under “Table 1, peptides at 50 μM”, the “2-DG6P” value was determined as 28.2 pmol and the “2-DG6P compared to -Insulin (%)” value is listed as 93.5%.

For the origin of these results see patent US11332503B2, “Peptides for treatment and prevention of hyperglycaemia” (UNIVERSITE DE STRASBOURG, priority 2017, dated 2022).
